Assays:
dogs (slow learners) = experiment: Discrimination learning, T-maze test (Test B) after three weeks on assigned diet; type: in vivo, dog; conditions: diet supplementation, compared with adding tryptophan to the diet
Experimental: To determine the effect of diet on learning capability, 81 dogs of various ages, types and sex were recruited from dog training clubs and colleagues of the experimenter; however, one dog had to be withdrawn from the study. Inclusion into the study required that the dogs were not receiving any veterinary treatment or medication for behavioral problems. All dogs were in good health, having been fully vaccinated and wormed. Dogs were tested in simple tests that required no lengthy training time. […] Each dog's baseline learning capability was established on its performance in Test A. It was determined that 15 of the dogs were fast learners, while 65 were slow learners.
Each owner was supplied an information sheet advising how to introduce the new diet over a period of days, to ensure that no digestion problems occurred from a sudden change of food. The dogs remained on the assigned diet for a period of three weeks and their learning capability was re-evaluated according to their performance in Test B. Latency to learn the task was used as a measure of learning capability and specific displacement activities were monitored to evaluate the effect on various behavior patterns. […]
The dogs' latency to learn was measured in the time it took them, to achieve success, measured as 100% of correct responses in five consecutive trials. […]

horse = conditions: horses, cited from earlier work

For `CC(C)C[C@H](N)C(=O)O` [leucine], the “enhancing serotonin levels in the brain, as measured by improved behavior and learning ability” value (dogs (slow learners)) was “as effective in enhancing serotonin levels in the brain as adding tryptophan to the diet”.
For `N[C@@H](Cc1c[nH]c2ccccc12)C(=O)O` [Tryptophan], the toxicity (horse; high doses given orally, presumably toxic hindgut metabolite) is given as “may cause hemolytic anemia”, the “effect on endurance capacity” value (horse; high doses) is given as “reduce endurance capacity” and the behavioral effect (horse; low doses) is given as “mild excitement”.

Source: US9326961B2, “Diet and methods for improving learning capacity, mood and behavior in mammals” (COAPE, LTD, priority 2010, dated 2016)
